Measurements published in patent US7405038B1, “Stable cell lines resistant to apoptosis and nutrient stress and methods of making same” (Boyce Thompson Institute for Plant Research, Inc., priority 2000, dated 2008).
Numbered stars: 1 amine (or outer) side, 2 acyl side, 3 side chain; on linkers, the order of the positions; unused ones are H or OH. Bridge positions count the residues as written; N and C are the ends. Square brackets hold non-standard residues; d marks the D form. Peptide text beside a SMILES is read from it. I, II: the chains in the order shown. Actinocin(9to1) = Cc1c2oc3c(C)ccc(C(=O)[*:1])c3nc-2c(C(=O)[*:2])c(N)c1=O; NMeV = CN[C@H](C(=O)O)C(C)C; Sar = CNCC(=O)O

What was measured:
Format in all cases: cell-based, Spodoptera frugiperda
Sf9P35AcV5-3 cells [1] = assay: Resistance to induction of apoptosis by actinomycin D: cell survival
Experimental: (§1) The cells were examined for resistance to induction of apoptosis by actinomycin D, as well as survival under conditions of nutrient deprivation. Sf9 cells or stably transfected lines Sf9^P35AcV5−1 and Sf9^P35AcV5−3 were incubated in medium containing 0.1 μg/ml actinomycin D for 1 hour, then placed in TNMFH medium.
(§2) Increasing doses of actinomycin D were tested to further examine the degree of resistance to this inducer of apoptosis. Sf9 or stably transfected cells expressing P35 were incubated in a range of concentrations of actinomycin D (0.01 to 0.5 μg/ml) for one hour, then placed in TNMFH and scored for cell survival after 1-4 days (Table 2).

Sf9P35AcV5-1 cells [2] = assay: as above
Experimental: as §1, §2

Sf9 cells = assay: DNA laddering on agarose gel after actinomycin D exposure; conditions: 0.1 μg/ml actinomycin D for one hour, 24 hours in fresh TNMFH
Experimental: (§3) To further examine resistance to apoptosis by P35 expressing cells, Sf9, Sf9^P35AcV5−1 and Sf9^P35AcV5−3 cells were plated at 2×10^6 cells/well in 6-well plates, then exposed to actinomycin D (0.1 μg/ml) for one hour, and incubated in fresh TNMFH medium at 27° C. for 24 hours. Cells were harvested and washed twice with PBS. Lysates were prepared by incubating cells in 200 μl lysis buffer (10 mM Tris pH 7.5, 25 mM EDTA, 0.2% Triton X-100) for one hour at room temperature. The lysate was extracted once with phenol, once with phenol:chloroform (1:1), twice with chloroform, and then precipitated in two volumes of ethanol. Cellular DNA was resuspended in 30 μl water containing RNAse A (50 μg/ml). 10 μl of DNA from each cell treatment was electrophoresed on a 1.2% agarose gel in TBE buffer (not shown).

Sf9P35AcV5-3 cells [3] = assay: as above; conditions: 0.1 μg/ml actinomycin D for one hour, 24 hours in fresh TNMFH
Experimental: as §3

Sf9P35AcV5-1 cells [4] = assay: as above; conditions: 0.1 μg/ml actinomycin D for one hour, 24 hours in fresh TNMFH
Experimental: as §3

[5] = system: surviving transfected Sf9 cells; assay: Actinomycin D selection of G418-selected transfected cells; conditions: 0.1 μg/ml actinomycin D for 1 hour, then fresh TNMFH; after three days
Experimental: In order to select cells expressing higher levels of functional P35, the surviving transfected cells were placed in medium containing 0.1 μg/ml actinomycin D for 1 hour. Another example of an inducer of apoptosis that could be used to select cells resistant to apoptosis is UV irradiation. In mammalian cells, inducers of apoptosis such as tumor necrosis factor (TNF) could also be used. The selection using an inducer of apoptosis could alternatively be performed without cotransfection with a selectable marker such as an antibiotic resistance gene.
At the end of the one hour incubation in actinomycin D, the medium was replaced with fresh TNMFH medium (containing no actinomycin D) and cells were allowed to grow for three days. After three days, 85-90% of the cells treated with actinomycin D-containing medium died. Medium was replaced after 3 days and surviving single cells formed small colonies which were subsequently propagated and used to clone individual cell lines by limiting dilution. For limiting dilution cloning, cells were diluted into 96 well plates such that each well received only one cell on average. Each well was subsequently monitored to ensure that only a single colony was present. Monoclonal cell lines were selected and propagated. Cell lines expressing the native P35 protein were named Sf9^P35, and lines expressing the epitope tagged P35 protein were named Sf9^P35AcV5. […]

[6] = 0.1 μg/ml actinomycin D for one hour, Day 2
[7] = 0.1 μg/ml actinomycin D for one hour, Day 3
[8] = 0.1 μg/ml actinomycin D for one hour, Day 4
[9] = 0.25 μg/ml actinomycin D for one hour, Day 1
[10] = 0.25 μg/ml actinomycin D for one hour, Day 2
[11] = 0.25 μg/ml actinomycin D for one hour, Day 3
[12] = 0.25 μg/ml actinomycin D for one hour, Day 4
[13] = 0.5 μg/ml actinomycin D for one hour, Day 1
[14] = 0.5 μg/ml actinomycin D for one hour, Day 2
[15] = 0.5 μg/ml actinomycin D for one hour, Day 3
[16] = 0.5 μg/ml actinomycin D for one hour, Day 4

Cc1c2oc3c(C)ccc(C(=O)N[C@@H]4C(=O)N[C@H](C(C)C)C(=O)N5CCC[C@H]5C(=O)N(C)CC(=O)N(C)[C@@H](C(C)C)C(=O)O[C@@H]4C)c3nc-2c(C(=O)N[C@@H]2C(=O)N[C@H](C(C)C)C(=O)N3CCC[C@H]3C(=O)N(C)CC(=O)N(C)[C@@H](C(C)C)C(=O)O[C@@H]2C)c(N)c1=O [Actinomycin D, actinomycin D] (I: T[dV]P[Sar][NMeV] / II: T[dV]P[Sar][NMeV]; ester I:1-I:C, II:1-II:C; linker I:N-II:N via Actinocin(9to1))
Sf9P35AcV5-3 Cell Survival (Percentage) (Sf9P35AcV5-3 cells [1]; [6]): 100 Percentage
Sf9P35AcV5-3 Cell Survival (Percentage) (Sf9P35AcV5-3 cells [1]; [7]): 100 Percentage
Sf9P35AcV5-3 Cell Survival (Percentage) (Sf9P35AcV5-3 cells [1]; [8]): 100 Percentage
survival of stably transfected line (Sf9P35AcV5-3 cells [1]; 0.25 μg/ml actinomycin D): 100%
Sf9P35AcV5-3 Cell Survival (Percentage) (Sf9P35AcV5-3 cells [1]; [9]): 100 Percentage
Sf9P35AcV5-3 Cell Survival (Percentage) (Sf9P35AcV5-3 cells [1]; [10]): 100 Percentage
Sf9P35AcV5-3 Cell Survival (Percentage) (Sf9P35AcV5-3 cells [1]; [11]): 100 Percentage
Sf9P35AcV5-3 Cell Survival (Percentage) (Sf9P35AcV5-3 cells [1]; [12]): 100 Percentage
survival of stably transfected line (Sf9P35AcV5-3 cells [1]; 0.5 μg/ml actinomycin D): ≤ 10%
Sf9P35AcV5-3 Cell Survival (Percentage) (Sf9P35AcV5-3 cells [1]; [13]): 9.2 Percentage
Sf9P35AcV5-3 Cell Survival (Percentage) (Sf9P35AcV5-3 cells [1]; [14]): 8.5 Percentage
Sf9P35AcV5-3 Cell Survival (Percentage) (Sf9P35AcV5-3 cells [1]; [15]): 1.5 Percentage
Sf9P35AcV5-3 Cell Survival (Percentage) (Sf9P35AcV5-3 cells [1]; [16]): 0 Percentage
resistance to actinomycin D as an inducer of apoptosis (Sf9P35AcV5-3 cells [1]; relative to Sf9 cells): ≥ 2 fold
Sf9P35AcV5-1 Cell Survival (Percentage) (Sf9P35AcV5-1 cells [2]; 0.01 μg/ml actinomycin D for one hour, Day 1): 100 Percentage
Sf9P35AcV5-1 Cell Survival (Percentage) (Sf9P35AcV5-1 cells [2]; 0.01 μg/ml actinomycin D for one hour, Day 2): 100 Percentage
Sf9P35AcV5-1 Cell Survival (Percentage) (Sf9P35AcV5-1 cells [2]; 0.01 μg/ml actinomycin D for one hour, Day 3): 100 Percentage
Sf9P35AcV5-1 Cell Survival (Percentage) (Sf9P35AcV5-1 cells [2]; 0.01 μg/ml actinomycin D for one hour, Day 4): 100 Percentage
Sf9P35AcV5-1 Cell Survival (Percentage) (Sf9P35AcV5-1 cells [2]; 0.025 μg/ml actinomycin D for one hour, Day 1): 100 Percentage
Sf9P35AcV5-1 Cell Survival (Percentage) (Sf9P35AcV5-1 cells [2]; 0.025 μg/ml actinomycin D for one hour, Day 2): 100 Percentage
Sf9P35AcV5-1 Cell Survival (Percentage) (Sf9P35AcV5-1 cells [2]; 0.025 μg/ml actinomycin D for one hour, Day 3): 100 Percentage
Sf9P35AcV5-1 Cell Survival (Percentage) (Sf9P35AcV5-1 cells [2]; 0.025 μg/ml actinomycin D for one hour, Day 4): 100 Percentage
Sf9P35AcV5-1 Cell Survival (Percentage) (Sf9P35AcV5-1 cells [2]; 0.05 μg/ml actinomycin D for one hour, Day 1): 100 Percentage
Sf9P35AcV5-1 Cell Survival (Percentage) (Sf9P35AcV5-1 cells [2]; 0.05 μg/ml actinomycin D for one hour, Day 2): 100 Percentage
Sf9P35AcV5-1 Cell Survival (Percentage) (Sf9P35AcV5-1 cells [2]; 0.05 μg/ml actinomycin D for one hour, Day 3): 100 Percentage
Sf9P35AcV5-1 Cell Survival (Percentage) (Sf9P35AcV5-1 cells [2]; 0.05 μg/ml actinomycin D for one hour, Day 4): 100 Percentage
Sf9P35AcV5-1 Cell Survival (Percentage) (Sf9P35AcV5-1 cells [2]; 0.075 μg/ml actinomycin D for one hour, Day 1): 100 Percentage
Sf9P35AcV5-1 Cell Survival (Percentage) (Sf9P35AcV5-1 cells [2]; 0.075 μg/ml actinomycin D for one hour, Day 2): 100 Percentage
Sf9P35AcV5-1 Cell Survival (Percentage) (Sf9P35AcV5-1 cells [2]; 0.075 μg/ml actinomycin D for one hour, Day 3): 100 Percentage
Sf9P35AcV5-1 Cell Survival (Percentage) (Sf9P35AcV5-1 cells [2]; 0.075 μg/ml actinomycin D for one hour, Day 4): 100 Percentage
survival of Sf9P35AcV5-1 cells (Sf9P35AcV5-1 cells [2]; 0.1 μg/ml actinomycin D for 1 hour, then TNMFH medium, after three days): survived
Sf9P35AcV5-1 Cell Survival (Percentage) (Sf9P35AcV5-1 cells [2]; 0.1 μg/ml actinomycin D for one hour, Day 1): 100 Percentage
Sf9P35AcV5-1 Cell Survival (Percentage) (Sf9P35AcV5-1 cells [2]; [6]): 100 Percentage
Sf9P35AcV5-1 Cell Survival (Percentage) (Sf9P35AcV5-1 cells [2]; [7]): 100 Percentage
Sf9P35AcV5-1 Cell Survival (Percentage) (Sf9P35AcV5-1 cells [2]; [8]): 100 Percentage
survival of stably transfected line (Sf9P35AcV5-1 cells [2]; 0.25 μg/ml actinomycin D): 100%
Sf9P35AcV5-1 Cell Survival (Percentage) (Sf9P35AcV5-1 cells [2]; [9]): 100 Percentage
Sf9P35AcV5-1 Cell Survival (Percentage) (Sf9P35AcV5-1 cells [2]; [10]): 100 Percentage
Sf9P35AcV5-1 Cell Survival (Percentage) (Sf9P35AcV5-1 cells [2]; [11]): 100 Percentage
Sf9P35AcV5-1 Cell Survival (Percentage) (Sf9P35AcV5-1 cells [2]; [12]): 100 Percentage
survival of stably transfected line (Sf9P35AcV5-1 cells [2]; 0.5 μg/ml actinomycin D): ≤ 10%
Sf9P35AcV5-1 Cell Survival (Percentage) (Sf9P35AcV5-1 cells [2]; [13]): 8.5 Percentage
Sf9P35AcV5-1 Cell Survival (Percentage) (Sf9P35AcV5-1 cells [2]; [14]): 5.7 Percentage
Sf9P35AcV5-1 Cell Survival (Percentage) (Sf9P35AcV5-1 cells [2]; [15]): 1.5 Percentage
Sf9P35AcV5-1 Cell Survival (Percentage) (Sf9P35AcV5-1 cells [2]; [16]): 0 Percentage
resistance to actinomycin D as an inducer of apoptosis (Sf9P35AcV5-1 cells [2]; relative to Sf9 cells): ≥ 2 fold
DNA laddering / degradation on ethidium bromide stained gel (Sf9 cells): DNA laddering effect typical of apoptosis
DNA laddering / degradation on ethidium bromide stained gel (Sf9P35AcV5-3 cells [3]): little or no laddering or degradation
DNA laddering / degradation on ethidium bromide stained gel (Sf9P35AcV5-1 cells [4]): little or no laddering or degradation
cells treated with actinomycin D-containing medium that died [5]: 85-90%
